Reference: PubChem BioAssay AID1963852 (Molecular Pharmacology Branch, DTP, NCI, 2024)
pIC50: −log10 of the molar value.

Test system: 282377-053-R-J1-PDC complex spheroid viability
Experiment: Anticancer human tumor 282377-053-R-J1-PDC patient-derived colon adenocarcinoma cell line growth inhibition [POLQ]
Details: for pIC50: curve of first compound; for viability, T/C: stronger effect = lower value; active = viability on the fitted dose curve at most 10% of control; inactive = the rest
In short: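 Complex spheroid viability model combining PDC tumour cells with endothelial (HUVEC) and MSC stromal cells. Novobiocin, ART-558 or RP6685 were tested singly and in combination with standard and investigational anticancer drugs. Each was titrated in half-log steps from near clinical Cmax, or from 10 microM where Cmax was unknown.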

[1] = second compound 0.0316 µM, first compound 0.0316 µM
[2] = second compound 0.0316 µM, first compound 0.1 µM
[3] = second compound 0.0316 µM, first compound 0.316 µM
[4] = second compound 0.0316 µM, first compound 1 µM
[5] = second compound 0.1 µM, first compound 0.0316 µM
[6] = second compound 0.1 µM, first compound 0.1 µM
[7] = second compound 0.1 µM, first compound 0.316 µM
[8] = second compound 0.1 µM, first compound 1 µM
[9] = second compound 0.316 µM, first compound 0.0316 µM
[10] = second compound 0.316 µM, first compound 0.1 µM
[11] = second compound 0.316 µM, first compound 0.316 µM
[12] = second compound 0.316 µM, first compound 1 µM
[13] = second compound 1 µM, first compound 0.0316 µM
[14] = second compound 1 µM, first compound 0.1 µM
[15] = second compound 1 µM, first compound 0.316 µM
[16] = second compound 1 µM, first compound 1 µM
[17] = second compound 3.16 µM, first compound 0.0316 µM
[18] = second compound 3.16 µM, first compound 0.1 µM
[19] = second compound 3.16 µM, first compound 0.316 µM
[20] = second compound 3.16 µM, first compound 1 µM
[21] = second compound 10 µM, first compound 0.0316 µM
[22] = second compound 10 µM, first compound 0.1 µM
[23] = second compound 10 µM, first compound 0.316 µM
[24] = second compound 10 µM, first compound 1 µM
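Also: spheroids exposed to compounds for seven days.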
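For viability, T/C in this document: 100% = DMSO vehicle control viability.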

CCc1c2c(nc3ccc(O)cc13)-c1cc3c(c(=O)n1C2)COC(=O)[C@]3(O)CC + Nc1ccc(C#CCN(C(=O)Cc2ncc(C(F)(F)F)cc2C(F)(F)F)c2ccc(F)cc2)nn1
6.02: pIC50 (second compound 0.1 µM)
6.09: pIC50 (second compound 0.316 µM)
inactive: viability, T/C (second compound 0.0316 µM, first compound 0.00316 µM) 99.3% | viability, T/C (second compound 0.0316 µM, first compound 0.01 µM) 96.8% | viability, T/C [1] 80.7% | viability, T/C [2] 78.3% | viability, T/C [3] 69.9% | viability, T/C [4] 58.8% | viability, T/C (second compound 0.1 µM, first compound 0.00316 µM) 92% | viability, T/C (second compound 0.1 µM, first compound 0.01 µM) 84.3% | viability, T/C [5] 86% | viability, T/C [6] 72.8% | viability, T/C [7] 62.9% | viability, T/C [8] 49.4% | viability, T/C (second compound 0.316 µM, first compound 0.00316 µM) 101% | viability, T/C (second compound 0.316 µM, first compound 0.01 µM) 92.3% | viability, T/C [9] 75.4% | viability, T/C [10] 74.4% | viability, T/C [11] 60.4% | viability, T/C [12] 46.8% | viability, T/C (second compound 1 µM, first compound 0.00316 µM) 107% | viability, T/C (second compound 1 µM, first compound 0.01 µM) 91.7% | viability, T/C [13] 99.8% | viability, T/C [14] 66.9% | viability, T/C [15] 61.8% | viability, T/C [16] 51.6% | viability, T/C (second compound 3.16 µM, first compound 0.00316 µM) 108% | viability, T/C (second compound 3.16 µM, first compound 0.01 µM) 87.1% | viability, T/C [17] 83.8% | viability, T/C [18] 70.6% | viability, T/C [19] 60.4% | viability, T/C [20] 51.5% | viability, T/C (second compound 10 µM, first compound 0.00316 µM) 116% | viability, T/C (second compound 10 µM, first compound 0.01 µM) 127% | viability, T/C [21] 97.1% | viability, T/C [22] 80.3% | viability, T/C [23] 64.3% | viability, T/C [24] 46.4%
< 6.00: pIC50 (second compound 0.0316 µM) | pIC50 (second compound 1 µM) | pIC50 (second compound 3.16 µM)
6.07: pIC50 (second compound 10 µM)

Nc1ccn(C2OC(CO)C(O)C2(F)F)c(=O)n1 (centres undefined) + Nc1ccc(C#CCN(C(=O)Cc2ncc(C(F)(F)F)cc2C(F)(F)F)c2ccc(F)cc2)nn1
< 5.00: pIC50 (second compound 0.0316 µM) | pIC50 (second compound 0.1 µM) | pIC50 (second compound 0.316 µM) | pIC50 (second compound 1 µM) | pIC50 (second compound 3.16 µM) | pIC50 (second compound 10 µM)
inactive: viability, T/C [1] 118% | viability, T/C [2] 128% | viability, T/C [3] 122% | viability, T/C [4] 83.3% | viability, T/C (second compound 0.0316 µM, first compound 3.16 µM) 84.4% | viability, T/C (second compound 0.0316 µM, first compound 10 µM) 68.4% | viability, T/C [5] 101% | viability, T/C [6] 112% | viability, T/C [7] 109% | viability, T/C [8] 101% | viability, T/C (second compound 0.1 µM, first compound 3.16 µM) 80.4% | viability, T/C (second compound 0.1 µM, first compound 10 µM) 65.4% | viability, T/C [9] 115% | viability, T/C [10] 98.8% | viability, T/C [11] 107% | viability, T/C [12] 95.7% | viability, T/C (second compound 0.316 µM, first compound 3.16 µM) 83% | viability, T/C (second compound 0.316 µM, first compound 10 µM) 56.2% | viability, T/C [13] 104% | viability, T/C [14] 93.8% | viability, T/C [15] 108% | viability, T/C [16] 92.6% | viability, T/C (second compound 1 µM, first compound 3.16 µM) 81% | viability, T/C (second compound 1 µM, first compound 10 µM) 67.7% | viability, T/C [17] 115% | viability, T/C [18] 116% | viability, T/C [19] 117% | viability, T/C [20] 107% | viability, T/C (second compound 3.16 µM, first compound 3.16 µM) 108% | viability, T/C (second compound 3.16 µM, first compound 10 µM) 78.8% | viability, T/C [21] 124% | viability, T/C [22] 120% | viability, T/C [23] 127% | viability, T/C [24] 124% | viability, T/C (second compound 10 µM, first compound 3.16 µM) 114% | viability, T/C (second compound 10 µM, first compound 10 µM) 90.5%
